Assay results as given in ChEMBL document CHEMBL1201862, “PubChem BioAssay data set” (2004).
Activity calls are given as the source filed them.

Key:
[1] = biological target: T1, RNA-binding protein pos-1 (Caenorhabditis elegans, UniProt G5EF15); assay: disruptors of C. elegans POS-1 RNA interaction – biochemical, fluorescence polarization, dose response (AID 1964);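 further: purified POS-1 fused to maltose binding protein made in E. coli; potency of compounds blocking POS-1 binding to fluorescent RNA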
T1 sequence (G5EF15 whole entry): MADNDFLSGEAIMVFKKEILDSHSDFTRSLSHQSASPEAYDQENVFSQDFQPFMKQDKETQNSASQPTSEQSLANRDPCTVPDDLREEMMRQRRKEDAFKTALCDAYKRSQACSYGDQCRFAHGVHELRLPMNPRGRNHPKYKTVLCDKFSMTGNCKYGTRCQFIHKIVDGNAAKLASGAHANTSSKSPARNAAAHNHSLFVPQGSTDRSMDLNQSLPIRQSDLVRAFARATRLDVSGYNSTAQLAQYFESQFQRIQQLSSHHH

[2] = Luminescence Cell-Based Dose Confirmation HTS to Identify Activators of 5'UTR Stem-Loop Driven Alpha-Synuclein mRNA Translation in H4 Neuroglioblastoma Cells. [Related pubchem assays: 1829 (Project Summary), 1814 (Primary HTS)]; assay type: functional
[3] = Luminescence Cell-Based Dose Response HTS to Identify Activators of Luciferase Translation or Activity in H4 […] Cells. [Related pubchem assays: 1829 (Project Summary), 1814 (Primary HTS)]; assay type: functional
H4 = assay: Luminescence Cell-Based Dose Response HTS to Identify Activators of 5'UTR Stem-Loop Driven Prion Protein mRNA Translation in H4 Neuroglioblastoma Cells. [Related pubchem assays: 1829 (Project Summary), 1814 (Primary HTS)]; assay type: functional; details: Homo sapiens
[4] = biological target: T2, Zinc finger protein mex-5 (Caenorhabditis elegans, UniProt Q9XUB2); assay: potency of MEX-5 RNA-binding blockers – biochemical, C. elegans, fluorescence polarization, dose response (AID 1960)
T2 sequence (Q9XUB2 whole entry): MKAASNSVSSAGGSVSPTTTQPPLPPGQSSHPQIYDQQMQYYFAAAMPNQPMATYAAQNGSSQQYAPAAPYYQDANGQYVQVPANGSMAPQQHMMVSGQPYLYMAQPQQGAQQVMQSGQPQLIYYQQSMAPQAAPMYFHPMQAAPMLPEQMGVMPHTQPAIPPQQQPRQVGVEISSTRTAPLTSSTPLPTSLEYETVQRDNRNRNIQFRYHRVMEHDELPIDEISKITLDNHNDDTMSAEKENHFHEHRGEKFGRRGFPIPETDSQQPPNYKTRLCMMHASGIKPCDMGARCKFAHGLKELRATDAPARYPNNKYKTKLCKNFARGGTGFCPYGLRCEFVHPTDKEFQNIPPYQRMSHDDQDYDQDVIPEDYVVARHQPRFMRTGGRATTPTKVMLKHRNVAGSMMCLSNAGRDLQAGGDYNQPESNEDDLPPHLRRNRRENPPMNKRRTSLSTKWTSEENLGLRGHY

[5] = biological target: T3, Corticotropin-releasing factor receptor 2/Corticotropin-releasing factor-binding protein (Homo sapiens, UniProt P24387+Q13324); assay: activators of CRF receptor 2 with binding protein – uHTS hits, confirmation (AID 602473); assay type: functional; details: read-out: EC50_Mean
T3 sequence (Q13324 whole entry): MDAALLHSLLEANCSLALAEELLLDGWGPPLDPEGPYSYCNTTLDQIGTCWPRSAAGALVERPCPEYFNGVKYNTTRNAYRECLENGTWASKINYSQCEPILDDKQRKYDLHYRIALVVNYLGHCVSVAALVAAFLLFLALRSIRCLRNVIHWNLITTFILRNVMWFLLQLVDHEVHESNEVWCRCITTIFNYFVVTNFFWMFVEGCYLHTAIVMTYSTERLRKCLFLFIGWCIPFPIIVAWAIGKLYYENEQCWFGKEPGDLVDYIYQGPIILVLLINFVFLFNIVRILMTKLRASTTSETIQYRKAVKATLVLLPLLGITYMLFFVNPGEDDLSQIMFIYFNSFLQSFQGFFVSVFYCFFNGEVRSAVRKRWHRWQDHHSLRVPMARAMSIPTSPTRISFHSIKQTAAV
T3 sequence (P24387 whole entry): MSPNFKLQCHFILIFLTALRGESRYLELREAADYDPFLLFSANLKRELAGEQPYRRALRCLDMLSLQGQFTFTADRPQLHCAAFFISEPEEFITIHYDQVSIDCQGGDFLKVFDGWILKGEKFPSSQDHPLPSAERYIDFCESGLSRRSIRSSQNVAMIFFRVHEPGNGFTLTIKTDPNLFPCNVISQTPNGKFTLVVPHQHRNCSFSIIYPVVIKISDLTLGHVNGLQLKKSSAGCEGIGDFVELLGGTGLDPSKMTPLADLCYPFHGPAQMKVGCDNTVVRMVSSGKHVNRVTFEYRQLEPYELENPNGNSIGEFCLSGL

Genome polyprotein = Genome polyprotein (dengue virus type 2, UniProt P29990); assay: flavivirus cap methylation enzyme inhibition – biochemical, confirmation dose response, primary screen (AID 588689); assay type: functional
Sequence of Genome polyprotein (P29990 2492-3391 limits assumed): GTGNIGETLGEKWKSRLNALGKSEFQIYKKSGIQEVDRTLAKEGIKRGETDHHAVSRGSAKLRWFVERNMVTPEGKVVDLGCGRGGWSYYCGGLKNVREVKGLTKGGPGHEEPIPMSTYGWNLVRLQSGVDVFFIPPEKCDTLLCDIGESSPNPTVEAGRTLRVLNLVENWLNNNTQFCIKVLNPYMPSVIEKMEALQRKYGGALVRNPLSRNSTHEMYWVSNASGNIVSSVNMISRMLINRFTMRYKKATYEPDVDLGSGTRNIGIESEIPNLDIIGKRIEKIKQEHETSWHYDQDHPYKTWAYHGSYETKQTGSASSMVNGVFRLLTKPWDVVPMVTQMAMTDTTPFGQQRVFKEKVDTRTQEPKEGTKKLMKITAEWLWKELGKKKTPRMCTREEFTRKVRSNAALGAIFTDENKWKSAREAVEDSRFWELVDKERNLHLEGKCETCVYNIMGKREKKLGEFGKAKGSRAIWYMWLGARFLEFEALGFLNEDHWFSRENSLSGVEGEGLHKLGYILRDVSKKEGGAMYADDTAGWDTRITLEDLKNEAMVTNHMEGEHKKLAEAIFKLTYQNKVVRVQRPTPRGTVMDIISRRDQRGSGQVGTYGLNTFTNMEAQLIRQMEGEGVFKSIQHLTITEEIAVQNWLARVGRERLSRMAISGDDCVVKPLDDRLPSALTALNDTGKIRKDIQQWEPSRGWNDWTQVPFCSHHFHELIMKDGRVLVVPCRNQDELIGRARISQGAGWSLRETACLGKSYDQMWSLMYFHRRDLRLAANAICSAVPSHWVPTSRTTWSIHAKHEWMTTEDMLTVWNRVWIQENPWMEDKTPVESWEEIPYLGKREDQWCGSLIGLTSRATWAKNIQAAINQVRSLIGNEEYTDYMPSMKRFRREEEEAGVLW

Large T antigen = Large T antigen (Simian virus 40, UniProt P03070); assay type: functional, Betapolyomavirus macacae;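 further: Confirmatory-stage PubChem screen for compounds that inhibit SV40 T antigen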
Sequence of Large T antigen (P03070 whole entry): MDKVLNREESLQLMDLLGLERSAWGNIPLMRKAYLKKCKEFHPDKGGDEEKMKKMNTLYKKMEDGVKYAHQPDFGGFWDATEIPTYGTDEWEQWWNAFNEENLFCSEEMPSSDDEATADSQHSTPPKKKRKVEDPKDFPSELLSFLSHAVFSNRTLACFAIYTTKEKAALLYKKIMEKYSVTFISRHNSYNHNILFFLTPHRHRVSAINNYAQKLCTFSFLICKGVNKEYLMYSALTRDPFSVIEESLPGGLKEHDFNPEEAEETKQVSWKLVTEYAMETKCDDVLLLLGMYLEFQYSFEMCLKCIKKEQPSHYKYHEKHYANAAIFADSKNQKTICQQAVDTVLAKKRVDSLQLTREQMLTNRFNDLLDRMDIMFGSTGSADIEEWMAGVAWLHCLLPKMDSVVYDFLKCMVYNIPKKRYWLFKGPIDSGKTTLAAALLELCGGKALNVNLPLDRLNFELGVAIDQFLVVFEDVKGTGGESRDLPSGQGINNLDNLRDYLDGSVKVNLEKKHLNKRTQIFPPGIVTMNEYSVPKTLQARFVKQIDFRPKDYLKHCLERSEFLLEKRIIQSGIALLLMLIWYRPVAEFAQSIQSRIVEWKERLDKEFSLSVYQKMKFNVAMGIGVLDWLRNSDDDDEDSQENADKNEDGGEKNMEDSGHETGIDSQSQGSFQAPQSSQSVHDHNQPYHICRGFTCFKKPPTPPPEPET

[6] = biological target: FAD-linked sulfhydryl oxidase ALR (Homo sapiens, UniProt P55789); assay: ALR-catalysed DTT oxidation blockers – biochemical, H2O2 detection, luminescence, cherry-pick, dose response (AID 493248)
Sequence of FAD-linked sulfhydryl oxidase ALR (P55789 whole entry): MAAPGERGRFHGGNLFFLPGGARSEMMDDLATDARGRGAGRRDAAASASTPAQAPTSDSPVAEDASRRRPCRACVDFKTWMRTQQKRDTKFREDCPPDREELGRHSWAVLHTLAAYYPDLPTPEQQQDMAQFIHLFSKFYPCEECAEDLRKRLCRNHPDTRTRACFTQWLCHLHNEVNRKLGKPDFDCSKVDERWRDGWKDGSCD

[7] = biological target: T4, Rac GTPase-activating protein 1 (Homo sapiens, UniProt Q9H0H5); assay: blockers of MgcRacGAP-driven Rac1 GTP hydrolysis – biochemical, ADP Hunter fluorescence, primary and confirmatory, confirmation (AID 624330); assay type: functional
T4 sequence (Q9H0H5 whole entry): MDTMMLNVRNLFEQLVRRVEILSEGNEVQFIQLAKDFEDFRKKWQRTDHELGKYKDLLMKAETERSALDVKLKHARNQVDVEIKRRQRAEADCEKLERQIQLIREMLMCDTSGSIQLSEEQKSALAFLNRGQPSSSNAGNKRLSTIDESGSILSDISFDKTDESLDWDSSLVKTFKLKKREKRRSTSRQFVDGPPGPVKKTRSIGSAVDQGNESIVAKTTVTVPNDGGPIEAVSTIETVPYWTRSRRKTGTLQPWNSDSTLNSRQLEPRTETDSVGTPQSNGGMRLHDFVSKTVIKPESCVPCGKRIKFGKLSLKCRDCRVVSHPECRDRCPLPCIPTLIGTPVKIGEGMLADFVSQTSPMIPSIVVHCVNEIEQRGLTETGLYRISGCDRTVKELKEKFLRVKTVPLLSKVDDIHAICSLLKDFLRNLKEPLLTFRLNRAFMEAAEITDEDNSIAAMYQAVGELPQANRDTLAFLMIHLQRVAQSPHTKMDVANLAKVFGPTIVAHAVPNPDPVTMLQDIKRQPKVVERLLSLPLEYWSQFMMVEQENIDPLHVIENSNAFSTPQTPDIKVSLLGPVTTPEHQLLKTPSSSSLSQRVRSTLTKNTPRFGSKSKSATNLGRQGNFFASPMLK

[8] = biological target: T5, Replicative DNA helicase DnaB (Mycobacterium tuberculosis, UniProt P9WMR3); assay: DnaB intein splicing inhibitors, dose response, biochemical, cell-free fluorescence (AID 449749); assay type: functional
T5 sequence (P9WMR3 whole entry): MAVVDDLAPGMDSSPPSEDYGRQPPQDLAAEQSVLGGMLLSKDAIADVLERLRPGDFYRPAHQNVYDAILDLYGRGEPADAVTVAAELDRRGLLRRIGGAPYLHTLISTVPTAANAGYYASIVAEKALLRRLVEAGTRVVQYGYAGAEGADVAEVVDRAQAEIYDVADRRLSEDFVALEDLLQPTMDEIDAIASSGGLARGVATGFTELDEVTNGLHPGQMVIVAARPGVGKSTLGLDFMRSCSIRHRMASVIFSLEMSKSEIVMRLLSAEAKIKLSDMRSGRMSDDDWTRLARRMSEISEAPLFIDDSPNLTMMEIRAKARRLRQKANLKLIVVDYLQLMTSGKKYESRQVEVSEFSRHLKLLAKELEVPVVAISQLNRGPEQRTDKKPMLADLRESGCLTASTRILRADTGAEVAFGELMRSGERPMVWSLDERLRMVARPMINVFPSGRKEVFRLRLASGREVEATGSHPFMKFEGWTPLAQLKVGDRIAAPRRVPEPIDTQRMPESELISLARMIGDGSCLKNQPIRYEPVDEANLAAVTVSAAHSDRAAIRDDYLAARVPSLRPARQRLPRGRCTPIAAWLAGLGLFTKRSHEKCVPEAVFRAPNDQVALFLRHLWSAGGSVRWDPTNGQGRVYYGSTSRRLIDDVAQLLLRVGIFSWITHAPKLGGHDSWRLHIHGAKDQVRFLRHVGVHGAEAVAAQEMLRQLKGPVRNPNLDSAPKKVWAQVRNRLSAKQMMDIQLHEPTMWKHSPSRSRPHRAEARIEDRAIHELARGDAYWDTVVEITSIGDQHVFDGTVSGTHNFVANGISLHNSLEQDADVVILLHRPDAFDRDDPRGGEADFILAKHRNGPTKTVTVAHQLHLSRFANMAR

Protein RecA = biological target: T6, Protein RecA (Mycobacterium tuberculosis, UniProt P9WHJ3); assay: Fluorescence Cell-Free Homogeneous Dose Retest to Identify Inhibitors of RecA-Intein Splicing Activity. [Related pubchem assays (depositor defined):AID2097, AID2223, AID489010, AID492950]; assay type: functional
T6 sequence (P9WHJ3 whole entry): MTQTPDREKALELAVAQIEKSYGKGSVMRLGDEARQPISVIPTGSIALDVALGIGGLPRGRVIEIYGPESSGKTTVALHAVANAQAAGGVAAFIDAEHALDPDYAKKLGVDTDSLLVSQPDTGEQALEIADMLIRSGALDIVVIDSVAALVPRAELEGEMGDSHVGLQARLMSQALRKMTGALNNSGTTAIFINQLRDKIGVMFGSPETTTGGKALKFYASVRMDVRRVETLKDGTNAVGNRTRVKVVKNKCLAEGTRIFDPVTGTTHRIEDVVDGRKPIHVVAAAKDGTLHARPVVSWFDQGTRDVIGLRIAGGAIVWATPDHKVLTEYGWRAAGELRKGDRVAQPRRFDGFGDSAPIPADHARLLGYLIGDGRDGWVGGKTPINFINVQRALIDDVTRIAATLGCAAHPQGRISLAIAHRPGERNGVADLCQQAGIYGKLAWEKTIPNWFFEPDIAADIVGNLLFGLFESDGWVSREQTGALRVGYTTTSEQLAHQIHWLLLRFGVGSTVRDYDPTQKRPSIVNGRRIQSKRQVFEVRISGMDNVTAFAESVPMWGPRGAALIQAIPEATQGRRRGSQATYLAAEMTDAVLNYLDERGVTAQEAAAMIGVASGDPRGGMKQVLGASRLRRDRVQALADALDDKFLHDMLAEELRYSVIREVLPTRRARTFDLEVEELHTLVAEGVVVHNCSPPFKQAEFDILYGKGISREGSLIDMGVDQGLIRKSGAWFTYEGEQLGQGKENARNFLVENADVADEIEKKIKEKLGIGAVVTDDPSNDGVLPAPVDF

Protein skinhead-1 = biological target: T7, Protein skinhead-1 (Caenorhabditis elegans, UniProt P34707); assay type: functional
T7 sequence (P34707 whole entry): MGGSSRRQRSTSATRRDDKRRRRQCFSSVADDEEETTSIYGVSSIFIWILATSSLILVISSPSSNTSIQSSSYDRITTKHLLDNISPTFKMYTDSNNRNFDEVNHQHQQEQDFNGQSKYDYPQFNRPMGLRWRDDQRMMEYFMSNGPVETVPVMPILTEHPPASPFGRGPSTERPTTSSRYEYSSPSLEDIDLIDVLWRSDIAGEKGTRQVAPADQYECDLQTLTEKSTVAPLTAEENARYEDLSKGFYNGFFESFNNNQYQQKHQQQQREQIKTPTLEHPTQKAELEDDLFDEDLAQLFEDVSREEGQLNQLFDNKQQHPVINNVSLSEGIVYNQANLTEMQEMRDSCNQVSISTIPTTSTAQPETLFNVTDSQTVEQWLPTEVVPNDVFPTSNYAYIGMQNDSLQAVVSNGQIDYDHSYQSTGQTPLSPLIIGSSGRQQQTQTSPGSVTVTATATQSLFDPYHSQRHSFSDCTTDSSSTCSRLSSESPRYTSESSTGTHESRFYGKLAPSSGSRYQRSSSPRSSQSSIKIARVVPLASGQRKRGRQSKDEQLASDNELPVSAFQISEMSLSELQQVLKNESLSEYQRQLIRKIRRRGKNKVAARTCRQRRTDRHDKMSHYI

**Q.** For `Cc1cccc(-n2c(C)cc(C=C3C(=O)c4ccccc4C3=O)c2C)c1`, which EC50 [1] is on record?
**A.** The EC50 was 46.6 µM (active).

**Q.** What about the EC50 [2] of the same compound?
**A.** The EC50 was 54.2 µM (active).

**Q.** And the EC50 [3]?
**A.** The EC50 was 11.4 µM (active).

**Q.** And the EC50 (H4)?
**A.** The EC50 was 7.1 µM (active).

**Q.** And the EC50 [4]?
**A.** The EC50 was 34.7 µM (inconclusive).

**Q.** What about the EC50 [5] of the same compound?
**A.** The EC50 was 12.9 µM (active).

**Q.** With `CN1C(=O)C(=Cc2ccccc2Oc2ccc(Cl)cc2)C(=O)N(C)C1=O` as the compound, how does the IC50 (Genome polyprotein) read?
**A.** The IC50 was 41.5 µM (active).

**Q.** For `COc1ccc(NC2CCCN(C(=O)CCn3cccn3)C2)cc1` (stereo not drawn), which IC50 (Large T antigen) is on record?
**A.** Its IC50 is 9.68 µM (active).

**Q.** And the AC50 [6]?
**A.** Its AC50 is 2.78 µM (active).

**Q.** Which IC50 (Large T antigen) does the source give for `COc1cc(/C=N/NC(=O)c2cnccn2)ccc1O` here?
**A.** Its IC50 is 5.52 µM (active).

**Q.** What about the IC50 [7] of the same compound?
**A.** The IC50 was 20.3 µM (active).

**Q.** For `O=C1C(Cl)=C(N2CCOCC2)C(=O)N1c1ccc(Br)cc1`, which AC50 [8] is on record?
**A.** The AC50 was 4.11 µM (active).

**Q.** What about the EC50 (Protein RecA) of the same compound?
**A.** Its EC50 is 2.11 µM (active).

**Q.** And the IC50 (Genome polyprotein)?
**A.** The IC50 was 36.2 µM (active).

**Q.** With `O=C(Nc1ccc(O)cc1)C1CCCO1` (stereo not drawn) as the compound, how does the IC50 (Large T antigen) read?
**A.** Its IC50 is 28.1 µM (active).

**Q.** With `Clc1cc(NCc2cccs2)ccc1N1CCOCC1` as the compound, how does the IC50 (Large T antigen) read?
**A.** The IC50 was 65.2 µM (active).

**Q.** What about the IC50 (Protein skinhead-1) of the same compound?
**A.** The IC50 was > 100 µM (inactive).

**Q.** For `CN(C)c1ccc(/C=C/c2cc[n+]([O-])cc2)cc1`, which IC50 (Large T antigen) is on record?
**A.** Its IC50 is 11.4 µM (active).
